Consider 24 compounds from paper PMC3252304, “Hydroxybenzothiazoles as New Nonsteroidal Inhibitors of 17β-Hydroxysteroid Dehydrogenase Type 1 (17β-HSD1)” (PLoS ONE, 2012).

The target in one assay is T1, human 17β-HSD1 (Homo sapiens, UniProt P14061).
T1 construct: In the cell free assay, the placental cytosolic enzyme was used; from tissue; host or cells: human placenta, cytosolic fraction, ammonium sulfate precipitate
T1 sequence (P14061 1-328): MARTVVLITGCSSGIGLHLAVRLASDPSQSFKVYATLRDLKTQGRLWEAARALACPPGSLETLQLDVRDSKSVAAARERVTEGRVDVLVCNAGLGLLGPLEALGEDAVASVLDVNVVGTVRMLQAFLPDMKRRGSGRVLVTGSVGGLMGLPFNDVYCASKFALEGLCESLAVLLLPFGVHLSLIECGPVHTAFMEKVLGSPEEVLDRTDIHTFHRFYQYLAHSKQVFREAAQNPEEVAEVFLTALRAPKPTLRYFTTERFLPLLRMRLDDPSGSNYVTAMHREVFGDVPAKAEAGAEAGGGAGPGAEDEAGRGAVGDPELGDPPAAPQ
In words: 17β-HSD1 cell free assay (placental cytosolic enzyme, [3H]E1 to E2, HPLC radiodetection). Particulars: for inhibition at 1 µM / 17β-HSD1 % inhib. (1µM): inhibitor 1 µM, less than 10% = inactive, ni = no inhibition; for inhibition at 1 µM / IC50 / 17β-HSD1 % inhib. (1µM): human placenta cytosolic fraction, [3H]E1 + E1 500 nM, NADH 500 µM; for inhibition at 1 µM: read-out: 17β-HSD1 % inhib. (1µM); for IC50: mean of three determinations. Format: biochemical.

Another assay concerns the target T2, human 17β-HSD2 (Homo sapiens, UniProt P37059).
T2 construct: 17β-HSD2 was obtained from the microsomal fraction; from tissue; host or cells: human placenta, microsomal fraction
T2 sequence (P37059 1-387): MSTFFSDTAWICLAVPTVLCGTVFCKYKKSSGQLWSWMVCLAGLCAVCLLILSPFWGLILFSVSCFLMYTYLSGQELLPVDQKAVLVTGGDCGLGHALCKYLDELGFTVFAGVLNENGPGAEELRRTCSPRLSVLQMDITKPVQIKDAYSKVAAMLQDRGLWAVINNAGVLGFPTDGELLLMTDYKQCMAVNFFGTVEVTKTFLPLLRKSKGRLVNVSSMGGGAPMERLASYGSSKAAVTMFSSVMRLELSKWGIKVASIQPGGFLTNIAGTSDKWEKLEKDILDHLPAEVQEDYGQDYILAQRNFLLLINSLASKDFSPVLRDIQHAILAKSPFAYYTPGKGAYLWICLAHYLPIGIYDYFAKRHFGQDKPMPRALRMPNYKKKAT
As to the kind of experiment: 17β-HSD2 cell free assay (placental microsomal enzyme, [3H]E2 to E1, HPLC radiodetection). Format: biochemical. Particulars: for IC50: human placenta microsomal fraction, [3H]E2 + E2 500 nM, NAD+ 1500 µM, mean of three determinations; for SF, selectivity factor = IC50(17β-HSD2)/IC50(17β-HSD1): ratio of cell free IC50 values. The protocol: Placental microsomal 17β-HSD2 was incubated with tritiated E2 (final concentration: 500 nM) in the presence of NAD^+ (1500 µM) and inhibitor. Separation and quantification of labeled substrate (E2) and product (E1) was performed by HPLC using radiodetection.
17β-HSD1 and 17β-HSD2 were obtained from human placenta according to previously described procedures. Fresh human placenta was homogenized and cytosolic fraction and microsomes were separated by centrifugation. For the partial purification of 17β-HSD1, the cytosolic fraction was precipitated with ammonium sulfate. 17β-HSD2 was obtained from the microsomal fraction.
Inhibition of 17β-HSD2. The 17β-HSD2 inhibition assay was performed similarly to the 17β-HSD1 procedure. The microsomal fraction was incubated with NAD^+ [1500 µM], test compound and a mixture of unlabelled- and [2, 4, 6, 7-^3H]-E2 (final concentration: 500 nM, 0.11 µCi) for 20 min at 37 °C. Further treatment of the samples and HPLC separation were carried out as mentioned above.
The conversion rate was calculated after analysis of the resulting chromatograms according to the following equation: % conversion = % E1/(% E1 + % E2) × 100.

For another assay, the system named is ERs. More on the design: method as in PMID 15743715, PMID 16728493. To be noted: RBA(E2) = 100%; cited from earlier work.
In another assay the test system is 17β-HSD1. Also noted: method as in PMID 12223444. To be noted: recombinant protein, NADPH as cosubstrate; value as described; read-out: 17β-HSD1 IC50 (external reference); cited from earlier work.

Experimental for human 17β-HSD1: In the cell free assay, the placental cytosolic enzyme was used. Tritiated E1 (final concentration: 500 nM) was incubated with 17β-HSD1, NADH (500 µM), and inhibitor as previously described [59]. After high performance liquid chromatography (HPLC) separation of substrate and product, the amount of labeled E2 formed was quantified.
Inhibitory activities were evaluated by an established method with minor modifications. Briefly, the enzyme preparation was incubated with NADH [500 µM] in the presence of potential inhibitors at 37 °C in a phosphate buffer (50 mM) supplemented with 20 % of glycerol and EDTA (1mM). Inhibitor stock solutions were prepared in DMSO. The final concentration of DMSO was adjusted to 1 % in all samples. The enzymatic reaction was started by addition of a mixture of unlabelled- and [2, 4, 6, 7-^3H]-E1 (final concentration: 500 nM, 0.15 µCi). After 10 min, the incubation was stopped with HgCl2 and the mixture was extracted with diethylether. After evaporation, the steroids were dissolved in acetonitrile. E1 and E2 were separated using acetonitrile/water (45:55) as mobile phase in a C18 reverse phase chromatography column (Nucleodur C18 Gravity, 3 µm, Macherey-Nagel, Düren) connected to a HPLC-system (Agilent 1100 Series, Agilent Technologies, Waldbronn). Detection and quantification of the steroids were performed using a radioflow detector (Berthold Technologies, Bad Wildbad). The conversion rate was calculated after analysis of the resulting chromatograms according to the following equation: % conversion = % E2/(% E2 + % E1) × 100. Each value was calculated from at least three independent experiments.

On to `Cc1nc(C(=O)c2cccc(O)c2)sc1CCO` [Compound 5, [5-(2-hydroxyethyl)-4-methyl-1,3-thiazol-2-yl](3-hydroxyphenyl)methanone], for which the inhibition at 1 µM on human 17β-HSD1 was 34%.
Regarding `O=C(c1cccc(O)c1)c1nc2ccc(O)cc2s1` [Compound 6, (6-hydroxy-1,3-benzothiazol-2-yl)(3-hydroxyphenyl)methanone], at human 17β-HSD2, the IC50 was 1040 nM and the “SF, selectivity factor = IC50(17β-HSD2)/IC50(17β-HSD1)” value is 24. Also, at human 17β-HSD1, the IC50 is 44 nM and the inhibition at 1 µM is 91%.
As to `COc1cccc(C(=O)c2nc3ccc(OC)cc3s2)c1` [Compound 6i], the “17β-HSD1 % inhib. (1µM)” value at human 17β-HSD1 is “ni”.
`Oc1cccc(C(O)c2nc3ccc(O)cc3s2)c1` (stereo not shown) [Compound 7]: the inhibition at 1 µM at human 17β-HSD1 came out at 28%.
Still for that read-out and setting: then `COC(c1cccc(O)c1)c1nc2ccc(O)cc2s1` (stereo not shown) [Compound 8], with 13%.
For the compound `CSC(c1ccc(O)cc1)c1nc2ccc(O)cc2s1` (stereo not shown) [Compound 9], on human 17β-HSD1, the “17β-HSD1 % inhib. (1µM)” value was “ni” and the inhibition at 1 µM stood at 7%.
On to `COc1ccc2nc(Cc3ccc(O)cc3)sc2c1` [Compound 10], for which the “17β-HSD1 % inhib. (1µM)” value at human 17β-HSD1 is “ni”.
Take `Oc1ccc(Cc2nc3ccc(O)cc3s2)cc1` [Compound 11]: on human 17β-HSD1, the inhibition at 1 µM came out at 24%.
For `O=C(c1cccc(O)c1)c1nc2ccccc2s1` [Compound 12, 1,3-benzothiazol-2-yl(3-hydroxyphenyl)methanone], at human 17β-HSD2, the IC50 was 1360 nM and the “SF, selectivity factor = IC50(17β-HSD2)/IC50(17β-HSD1)” value is 4. Moreover, at human 17β-HSD1 (compared with compound 6), the “fold lower 17β-HSD1 inhibitory activity than 6” value is on record as 8 fold. At human 17β-HSD1, the IC50 was 365 nM and the inhibition at 1 µM stood at 75%.
As to `COc1ccc(C(=O)c2nc3ccc(O)cc3s2)cc1` [Compound 13, (6-hydroxy-1,3-benzothiazol-2-yl)(4-methoxyphenyl)methanone], the inhibition at 1 µM on human 17β-HSD1 amounted to 27%.
Regarding `O=C(c1ccc(O)cc1)c1nc2ccc(O)cc2s1` [Compound 14, (6-hydroxy-1,3-benzothiazol-2-yl)(4-hydroxyphenyl)methanone], at human 17β-HSD2, the IC50 was 2470 nM and the “SF, selectivity factor = IC50(17β-HSD2)/IC50(17β-HSD1)” value was found to be 10. Besides, on human 17β-HSD1, the IC50 is 243 nM and the inhibition at 1 µM was determined as 85%.
`COc1ccc2nc(C(=O)Nc3ccccc3O)sc2c1` [Compound 15]: the “17β-HSD1 % inhib. (1µM)” value on human 17β-HSD1 is on record as “ni”.
On to `O=C(Nc1ccccc1O)c1nc2ccc(O)cc2s1` [Compound 16], for which, on human 17β-HSD1, the “17β-HSD1 % inhib. (1µM)” value was “ni”.
Consider `COc1ccc2nc(C(=O)Nc3cccc(O)c3)sc2c1` [Compound 17], for which the inhibition at 1 µM on human 17β-HSD1 was found to be 31%.
As for `O=C(Nc1cccc(O)c1)c1nc2ccc(O)cc2s1` [Compound 18], on human 17β-HSD2, the IC50 was found to be 3810 nM and the “SF, selectivity factor = IC50(17β-HSD2)/IC50(17β-HSD1)” value is recorded as 3. On human 17β-HSD1, the IC50 amounted to 1310 nM and the inhibition at 1 µM was found to be 40%.
In the case of `COc1ccc(C(=O)Nc2nc3ccc(O)cc3s2)cc1` [Compound 19], on human 17β-HSD1, the “17β-HSD1 % inhib. (1µM)” value is recorded as “ni”.
Turning to `O=C(Nc1nc2ccc(O)cc2s1)c1ccc(O)cc1` [Compound 20], the inhibition at 1 µM on human 17β-HSD1 worked out at 39%.
`O=C(Nc1nc2ccc(O)cc2s1)c1cccc(O)c1` [Compound 21]: the IC50 on human 17β-HSD2 came to 9260 nM. Further, the inhibition at 1 µM at human 17β-HSD1 is 83%.
For `O=S(=O)(Nc1nc2ccc(O)cc2s1)c1cccc(O)c1` [Compound 22], at human 17β-HSD1, the “17β-HSD1 % inhib. (1µM)” value was “inactive and ni”.
Still for that read-out and setting: then `O=C(Nc1cccc(O)c1)Nc1nc2ccc(O)cc2s1` [Compound 23], with “inactive and no inhibition and ni”.
For `Oc1cccc(NC(=S)Nc2nc3ccc(O)cc3s2)c1` [Compound 24], on human 17β-HSD1, the “17β-HSD1 % inhib. (1µM)” value is reported as “moderate inhibitory activity” and the inhibition at 1 µM was 62%.
With `O=C(Cc1cccc(O)c1)Nc1nc2ccc(O)cc2s1` [Compound 25], the “17β-HSD1 % inhib. (1µM)” value at human 17β-HSD1 is “inactive and ni”.
With `C[C@]12CC[C@@H]3c4ccc(O)cc4CC[C@H]3[C@@H]1CCC2=O` [Compound E1, estrone], the “RBA for the ERs” value with ERs was “about 10%”.
With `C[C@]12CC[C@@H]3c4ccc(O)cc4CC[C@H]3[C@@H]1C[C@H](CCCCCCCCC(=O)OCC1OC(n3cnc4c(N)ncnc43)C(O)C1O)[C@@H]2O` (stereo partly shown) [EM-1745], the IC50 in the assay on 17β-HSD1 is 52 nM.
